Source: patent US20110119780A1, “SCREENING FOR NON-GENOTOXIC CARCINOGENS” (priority 2008, published 2011)
“And” between values parts separate entries of the source, which are not always exact repeats. Equal values may be shown once.

Columns and labels:
[1] = PXR/CAR-dependent hepatomegaly by PB (body, liver weights); details: 80 mg/kg IP x4 days; for Body weight - Day 1 / Body weight - Day 5 / Liver weight / Liver/Body weight Ratio: Mean ± SD
Description: In order to assess whether humanised PXR/CAR mice mimic the response to PB in humans, the huPXR/huCAR and PXRKO/CARKO mouse models were used. The mutant mouse strains were obtained from Artemis. The WT mouse strain C57BL/6J was obtained from Harlan (UK). All animals were between 10 and 16 weeks of age.The following parameters were studied: • Liver/body weight ratios • BrdU incorporation analysed as a measure of cell proliferation • Haematoxylin and eosin (H&E) liver histopathology • Expression and activity of P450s by SDS-PAGE and Western blotting in liver microsomes • Apoptotic indices as analysed by TUNEL assay in the liver
(§1) The study consisted of 6 groups with 10 WT mice per group, 9-10 PXRKO/CARKO mice per group and 9 huPXR/huCAR mice per group (Table 19). […] On Day 1 all animals were dosed with either 80 mg/kg PB/saline or saline alone by intraperitoneal injection for 4 days as detailed in Table 19.
Following treatment with PB or the vehicle, the mice were sacrificed and their livers were removed and weighed.

[2] = test system: hepatocellular proliferation; experiment: Hepatic cell proliferation, BrdU incorporation (S-phase labelling index); details: for % mean (S-phase labelling index relative to control of the same mouse line = 100) / % BrDu positive Cells, Mean / % BrDu positive Cells (hepatic S-phase labelling index), individual mouse: PB-treated; for % BrDu positive Cells, Mean: group mean; for % BrDu positive Cells (hepatic S-phase labelling index), individual mouse: individual animals
Protocol: Osmotic pumps containing BrdU (15 mg/ml/PBS) were implanted into WT, huPXR/huCAR and PXRKO/CARKO mice prior to PB treatment (80 mg/kg/4 days/IP). Livers sections were labelled using a Brdu antibody (Dako). All microscopic images were captured at a magnification of 40×. Data represents random sampling of 10 images per lobes (2) counting approximately 180,000 cells/animal group, as according to Pat-0013-0014. Values are expressed as Mean±SD, n=9-10 for control mice, n=8-9 for PB-treated mice.
as §1
All mouse liver and duodenum sections were analysed for BrdU incorporation as a measure of cell proliferation. The method used was an indirect BrdU labelling assay.

[3] = test system: hepatocellular apoptosis; experiment: Liver in situ cell death, TUNEL labelling assay (apoptotic indices); format: in vivo; details: WT, huPXR/huCAR and PXRKO/CARKO mice; Student's t-test
Description: Livers sections were labelled using a TUNEL in situ cell detection kit (Roche). […] Data represents random sampling of 20 images per lobes (2) counting approximately 380,000 cells/animal group.
However, no such consistency has been observed in mice. An indirect TUNEL labelling assay was used to analyse hepatic in situ death (FIG. 9/Table 21). The present study has shown a marker variation in apoptotic indices in mouse liver. Thus, small (e.g. 50%) compound-induced decreases, upon a low background, were not readily demonstrable.

[4] = test system: hepatocellular hypertrophy; experiment: H&E analysis of liver sections, PB; format: in vivo, mice; details: 80 mg/kg IP x4 days
Description: Portal vein (P) and central vein (C) are labelled. A 20× objective lens was used to capture the images.
Two samples of the liver (one from the lobe, one from the median lobe) and one sample of the small intestine were taken and preserved in 4% neutral buffered formaldehyde (NBF). The preserved liver samples of all mice of all groups were trimmed, processed and embedded in paraffin. The paraffin-embedded samples were sent to Progenix, Inverkeithing, UK where they were sectioned at a nominal thickness of about 5 æm and then stained with haematoxylin and eosin (H&E). One section of each organ sample was examined by Dr. Ortwin Vogel, Consultant Pathologist, Kiel, Germany. Subsequent to his histopatholoical analysis of all H&E stained mouse livers and small intestines, Dr. Vogel reported the following finding;

[5] = test system: Cyp3a11; experiment: Hepatic P450 induction: benzyloxyquinoline debenzylation (BQ) in liver microsomes; format: in vivo, mouse; details: 80 mg/kg IP x4 days
Protocol: (§2) Each assay was performed on individual liver microsomes. Values are expressed as Mean±SD (n=9/10).

[6] = test system: Cyp2b10; experiment: Hepatic P450 induction: PROD and BROD in liver microsomes; format: in vivo, mouse; details: 80 mg/kg IP x4 days
Protocol: as §2
BROD and PROD are markers of Cyp2b10 activity in the mouse. […] However, PROD or BROD activities were not altered in the PXRKO/CARKO mice upon exposure to PB. Overall, PB induced P450 catalytic activities in the WT and huPXR/huCAR mouse lines, but not in the animals which were devoid of these receptors.

[7] = test system: Cyp1a1/1a2; experiment: Hepatic P450 induction: MROD and EROD in liver microsomes; details: 80 mg/kg IP x4 days
Protocol: as §2
P450 catalytic activities in the liver microsomal fractions were quantified. For the quantification of mouse Cyp2b10 and Cyp3a11 activities, the dealkylation of pentoxyresofurin (PROD) and the debenzylation of benzyloxyquinoline (BQ) activities, respectively. In addition, […] (BROD), methoxyresorufin-O-demethylase (MROD) and 7-ethoxyresorufin-)-deethylase (EROD) activities were also measured and evaluated (see FIG. 11).
EROD activity is indicative of Cyp1a1/1a2 and Cyp1b1 in the mouse, whereas MROD is a substrate for Cyp1a2. However, other isoforms may be contributing to the measured activities.

[8] = test system: Cyp2b10 and Cyp3a11; experiment: Cyp2b10 and Cyp3a11 protein in pooled liver microsomes by Western blotting, PB; format: in vivo, mouse
Protocol: Liver microsomes (0.3 ug) from each animal were pooled (n=9/10) for wild type, huPXR/huCAR and PXRKO/CARKO mice and characterised for Cyp2b10 and Cyp3a11 by immunoblotting using rabbit polyclonal CH4 (1:2000 dilution) and CH32 antibodies (1:2000 dilution), respectively (C. Henderson, University of Dundee, UK); +ve, control was either purified recombinant his-tagged Cyp3a11 membranes (0.1 pmol/u.l) or purified recombinant his-tagged Cyp2b10 membranes (O.Olpmol/u.l). Blots were developed using ECL and exposed for 30 secs.

[9] = test system: Cyp3a11 and Cyp2b10; experiment: Inductive effect of Phenobarbital in a panel of PXR/CAR knockout and humanised mice

With `CCC1(c2ccccc2)C(=O)NC(=O)NC1=O` [PB, Phenobarbital] the “Body weight - Day 1, % mean own control” value ([1]; PXRKO/CARKO mice) was “(100 ± 8) %”, the “Body weight - Day 5, % mean own control” value ([1]; PXRKO/CARKO mice) was “(98 ± 8) %” and the “Liver weight, % mean own control” value ([1]; PXRKO/CARKO mice) was “(98 ± 16) %”. The “Liver/Body weight Ratio, % mean own control” value ([1]; PXRKO/CARKO mice) was “(100 ± 9) %”, the “Body weight - Day 1” value ([1]; PXRKO/CARKO mice) was 27.2 ± 2.2 g and the “Body weight - Day 5” value ([1]; PXRKO/CARKO mice) was 26.6 ± 2.2 g. The Liver weight ([1]; PXRKO/CARKO mice) was 1.42 ± 0.23 g, the “Liver/Body weight Ratio” value ([1]; PXRKO/CARKO mice) was 5.3 ± 0.4 and the “Body weight - Day 1, % mean own control” value ([1]; WT mice) was “(106 + 6) %”. For the same compound, the “Body weight - Day 5, % mean own control” value ([1]; WT mice) was “(84 ± 5) %”, the “Liver weight, % mean own control” value ([1]; WT mice) was “(101 ± 6) %” and the “Body weight - Day 1” value ([1]; WT mice) was 26.4 ± 1.8 g. For the same compound, the “Body weight - Day 5” value ([1]; WT mice) was 23.2 ± 1.3 g, the Liver weight ([1]; WT mice) was 1.44 ± 0.09 g and the “Liver/Body weight Ratio” value ([1]; WT mice) was 6.2 ± 0.2. The “Body weight - Day 1, % mean own control” value ([1]; huPXR/huCAR mice) was “(104 ± 5) %”, the “Body weight - Day 5, % mean own control” value ([1]; huPXR/huCAR mice) was “(99 ± 6) %” and the “Liver weight, % mean own control” value ([1]; huPXR/huCAR mice) was “(121 ± 11) %”. For the same compound, the “Body weight - Day 1” value ([1]; huPXR/huCAR mice) was 26.3 ± 1.2 g, the “Body weight - Day 5” value ([1]; huPXR/huCAR mice) was 25.4 ± 1.5 g and the Liver weight ([1]; huPXR/huCAR mice) was 1.69 ± 0.16 g. For the same compound, the “Liver/Body weight Ratio” value ([1]; huPXR/huCAR mice) was 6.7 ± 0.6, the “% mean (S-phase labelling index relative to control of the same mouse line = 100)” value ([2]; PXRKO/CARKO mice) was 144% and the “% BrDu positive Cells, Mean” value ([2]; PXRKO/CARKO mice) was 2.83%. The “% BrDu positive Cells (hepatic S-phase labelling index), individual mouse” value ([2]; PXRKO/CARKO mice) was 2.16% and 1.98% and 1.82% and 2.30% and 3.77% and 5.10% and 3.71% and 1.88% and 3.06% and 2.51%, the “% mean (S-phase labelling index relative to control of the same mouse line = 100)” value ([2]; WT mice) was 531% and the “% BrDu positive Cells, Mean” value ([2]; WT mice) was 9.30%. The “% BrDu positive Cells (hepatic S-phase labelling index), individual mouse” value ([2]; WT mice) was 9.45% and 5.54% and 16.69% and 6.32% and 9.50% and 8.09% and 7.64% and 13.60%, the “hepatocellular labelling index (S-phase), increase” value ([2]; WT mice, 80 mg/kg IP x4 days, BrdU) was “approximately 5 fold” and the “% mean (S-phase labelling index relative to control of the same mouse line = 100)” value ([2]; huPXR/huCAR mice) was 104%. The “% BrDu positive Cells, Mean” value ([2]; huPXR/huCAR mice) was 2.00%, the “% BrDu positive Cells (hepatic S-phase labelling index), individual mouse” value ([2]; huPXR/huCAR mice) was 0.37% and 0.-18% and 1.19% and 1.86% and 3.GO and 1.98% and 3.18% and 3.24% and 2.13% and the “effect on cell proliferation (BrdU labelling)” value ([2]; huPXR/huCAR or PXRKO/CARKO mice, 80 mg/kg IP x4 days) was “no effect”. The “Hepatic apoptotic indices (TUNEL), PB-treated vs control” value [3] was “no statistical significance found”, the “hepatocellular hypertrophy (H&E)” value ([4]; PXRKO/CARKO mice) was “no unequivocal evidence” and the “liver growth response (hypertrophy, hyperplasia), conclusion” value (shortened to “liver growth response”) ([4]; PXRKO/CARKO mice) was “did not induce hepatomegaly”. The “liver growth response” value ([4]; WT mice) was “induced hypertrophy and hyperplasia”, the “centrilobular hepatocellular hypertrophy (H&E)” value ([4]; huPXR/huCAR and WT animals) was “slight to moderate” and the “liver growth response” value ([4]; huPXR/huCAR mice) was “induced hypertrophy but not hyperplasia”. For the same compound, the “Cyp3a11 induction (BQ activity)” value ([5]; PXRKO/CARKO mice) was “absence of Cyp3a11 induction”, the BQ activity ([5]; WT animals, liver microsomes) was “marginal increase” and the “BQ activity, increase” value ([5]; huPXR/huCAR mice, liver microsomes) was 5 fold. For the same compound, the “PROD or BROD activities” value ([6]; PXRKO/CARKO mice) was “not altered”, the “Cyp2b10 induction (BROD and PROD activities)” value ([6]; WT and huPXR/huCAR mouse lines, at similar levels) was “marker Cyp2b10 induction was observed” and the “MROD and EROD enzyme activities” value ([7]; PXRKO/CARKO line) was “no increase”. The “MROD and EROD enzyme activities” value ([7]; WT and huPXR/huCAR mice) was “increased”, the “Cyp2b10 and Cyp3a11 protein induced (Western blotting)” value ([8]; PXRKO/CARKO animals) was “not” and the “Cyp2b10 and Cyp3a11 protein (Western blotting)” value ([8]; WT and humanised mouse lines) was “induced”. The “activation of Cyp3a11 and Cyp2b10 in vivo” value [9] was “predominantly CAR-dependent”.
